In PubChem BioAssay (NCI):
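Growth conditions: 96-well plates. Treatment: test compound, 48 hours, 5 concentrations. Analysis: linear interpolation between bracketing concentrations; unreached endpoints set to highest concentration. At the TGI there is no net growth.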

Assays:
Experiment in all cases: NCI tumour cell line growth inhibition, 48 h
[1] = system: HCT-15 colon
[2] = system: OVCAR-4 ovarian
[3] = system: SF-268 CNS
[4] = system: MDA-N
[5] = system: OVCAR-3 ovarian
[6] = system: NCI-H23 lung
[7] = system: NCI/ADR-RES ovarian
[8] = system: SNB-75 CNS
[9] = system: MOLT-4 leukemia
[10] = system: HOP-92 NSCLC
[11] = system: UO-31 renal
[12] = system: A549 NSCLC
[13] = system: BT-549 breast
[14] = system: IGROV1 ovarian
[15] = system: UACC-62 melanoma
[16] = system: LOX IMVI melanoma
[17] = system: TK-10 renal
[18] = system: HCT-116 colon
[19] = system: 786-0 renal
[20] = system: SK-MEL-2 melanoma
[21] = system: HS 578T breast
[22] = system: MDA-MB-435
[23] = system: SK-OV-3 ovarian
[24] = system: DU-145 prostate
[25] = system: SF-539 CNS
[26] = system: EKVX NSCLC
[27] = system: M14 melanoma
[28] = system: MCF7 breast
[29] = system: MALME-3M melanoma
[30] = system: NCI-H460 lung
[31] = system: SK-MEL-5 melanoma
[32] = system: SW-620 colon
[33] = system: NCI-H226 lung
[34] = system: NCI-H522 lung
[35] = system: RXF 393 renal
[36] = system: U251 CNS
[37] = system: HCC-2998 colon
[38] = system: UACC-257 melanoma
[39] = system: KM12 colon
[40] = system: CCRF-CEM leukemia
[41] = system: PC-3 prostate
[42] = system: SR leukemia
[43] = system: HT29 colon
[44] = system: K-562 leukemia
[45] = system: MDA-MB-231 breast
[46] = system: OVCAR-5 ovarian
[47] = system: COLO 205 colon
[48] = system: ACHN renal
[49] = system: A498 renal
[50] = system: T-47D breast
[51] = system: SN12C renal
[52] = system: OVCAR-8 ovarian
[53] = system: SF-295 CNS
[54] = system: CAKI-1 renal
[55] = system: SNB-19 CNS
[56] = system: HL-60(TB) leukemia
[57] = system: HOP-62 NSCLC
[58] = system: SK-MEL-28 melanoma
[59] = system: RPMI-8226 leukemia

Structure (SMILES): Cc1ccccc1NC(=O)O/N=C(\Cl)C(C)C
- TGI [1]: 4.17 µM
- TGI [2]: 23.2 µM
- TGI [3]: 45.1 µM
- TGI [4]: 8.58 µM
- TGI [5]: 9.35 µM
- TGI [6]: 32 µM
- TGI [7]: 33.7 µM
- TGI [8]: 32.1 µM
- TGI [9]: > 28 µM
- TGI [10]: 4.08 µM
- TGI [11]: 31.3 µM
- TGI [12]: 36.8 µM
- TGI [13]: 12.6 µM
- TGI [14]: 27.6 µM
- TGI [15]: 28.3 µM
- TGI [16]: 3.11 µM
- TGI [17]: 8.19 µM
- TGI [18]: 4.79 µM
- TGI [19]: 3.45 µM
- TGI [20]: 32.6 µM
- TGI [21]: 58.5 µM
- TGI [22]: 30.1 µM
- TGI [23]: 32.8 µM
- TGI [24]: 31.5 µM
- TGI [25]: 22.6 µM
- TGI [26]: 4.94 µM
- TGI [27]: 12.1 µM
- TGI [28]: 22.1 µM
- TGI [29]: 5.73 µM
- TGI [30]: 34.7 µM
- TGI [31]: 25.9 µM
- TGI [32]: 4.36 µM
- TGI [33]: 30.7 µM
- TGI [34]: 3.18 µM
- TGI [35]: 25.1 µM
- TGI [36]: 39.9 µM
- TGI [37]: 31.5 µM
- TGI [38]: 28.7 µM
- TGI [39]: 36.2 µM
- TGI [40]: > 21.7 µM
- TGI [41]: 31 µM
- TGI [42]: > 100 µM
- TGI [43]: 11.7 µM
- TGI [44]: 5.51 µM
- TGI [45]: 32.7 µM
- TGI [46]: 40.5 µM
- TGI [47]: 3.29 µM
- TGI [48]: 3.13 µM
- TGI [49]: 36.4 µM
- TGI [50]: 11.3 µM
- TGI [51]: 3.2 µM
- TGI [52]: 33.8 µM
- TGI [53]: 33.7 µM
- TGI [54]: 3.2 µM
- TGI [55]: 41.9 µM
- TGI [56]: > 22 µM
- TGI [57]: 33.4 µM
- TGI [58]: 6.25 µM
- TGI [59]: 4.03 µM

Structure (SMILES): O=C1[C@@H]2[C@@H](CN3CN(c4ccccc4)N=C(c4ccccc4)[C@@]23c2ccccc2)C(=O)N1c1ccccc1
- TGI [1]: 5.25 µM
- TGI [2]: > 23.8 µM
- TGI [3]: 47.1 µM
- TGI [4]: 20.1 µM
- TGI [5]: 21.2 µM
- TGI [6]: 23.6 µM
- TGI [7]: 49.2 µM
- TGI [8]: 34.9 µM
- TGI [9]: > 100 µM
- TGI [10]: 3.86 µM
- TGI [11]: 3.29 µM
- TGI [12]: 19.7 µM
- TGI [13]: 13.2 µM
- TGI [14]: 29.5 µM
- TGI [15]: 20.1 µM
- TGI [16]: 3.3 µM
- TGI [17]: 3.13 µM
- TGI [18]: 31.8 µM
- TGI [19]: 5.56 µM
- TGI [20]: 40.3 µM
- TGI [21]: > 65.8 µM
- TGI [22]: 23.2 µM
- TGI [23]: 27.7 µM
- TGI [24]: 24.7 µM
- TGI [26]: 11 µM
- TGI [27]: 9.73 µM
- TGI [28]: 4.04 µM
- TGI [29]: 3.57 µM
- TGI [30]: 50.4 µM
- TGI [31]: 32.6 µM
- TGI [32]: 3.84 µM
- TGI [33]: 8.87 µM
- TGI [34]: 1.13 µM
- TGI [35]: 9.65 µM
- TGI [36]: > 65.6 µM
- TGI [37]: > 100 µM
- TGI [38]: 29.1 µM
- TGI [39]: > 75.5 µM
- TGI [41]: 27.1 µM
- TGI [42]: > 100 µM
- TGI [43]: 6.22 µM
- TGI [44]: > 25.4 µM
- TGI [45]: 16.6 µM
- TGI [46]: 10.4 µM
- TGI [47]: 3.83 µM
- TGI [48]: 3.69 µM
- TGI [49]: 36.6 µM
- TGI [50]: 8.04 µM
- TGI [51]: 18.4 µM
- TGI [52]: 13.9 µM
- TGI [53]: 30.2 µM
- TGI [54]: 2.45 µM
- TGI [55]: 36.8 µM
- TGI [56]: 6.33 µM
- TGI [57]: 30 µM
- TGI [58]: 26 µM
- TGI [59]: 12.4 µM
